Residues, ends and D or L forms follow the SMILES beside them. *: point of attachment. Cbz = O=C(OCc1ccccc1)*
Tests used:
[1] = system: Cav3.2 channels; experiment: Cav3.2 ubiquitination in cultured mouse DRG neurons (immunoprecipitation, anti-ubiquitin western blot); type: cell-based; conditions: 5 μM MG132 overnight
[2] = system: Cav3.2 channels; experiment: Ubiquitination state of Cav3.2 channels in CAD cells with proteasomal inhibitor (western blot densitometry); type: cell-based; conditions: 5 μM MG132, CAD cells, mean±SEM
Description: Human embryonic kidney tsA-201 cells were cultured as described previously (Altier et al., 2006). Cells were transfected with calcium phosphate and used for biochemical analysis 72 hrs post-transfection. Neuronal derived CAD cells were cultured as described previously (Altier et al., 2011). These cells were transfected with Lipofectamine 2000 (Invitrogen) and used for biochemical and electrophysiological experiments 48-72 hrs post-transfection. Both tsA-201 and CAD cells were preincubated with 5 μM MG132 (MG) or 100 μM Chloroquine (Chl) overnight.
Cells were lysed in RIPA buffer (in mM; 50 Tris, 100 NaCl, 1% triton X-100, 1% NP-40, 0.2% SDS, 0.1% NaDeoxycholate, 20 NaF, 10 Na4P2O7 pyrophosphate, 10 EDTA+protease inhibitor cocktail, pH 7.5). A modified RIPA buffer (in mM; 50 Tris, 100 NaCl, 0.2% (v/v) triton X-100, 0.2% (v/v) NP-40, 10 EDTA+protease inhibitor cocktail, with or without 5 μM MG132 pH 7.5) was used to co-immunoprecipitate Cav3.2 channels with USP5 protein. Lysates from tsA-201, CAD cells and rat brain tissue were prepared by sonicating samples at 60% pulse for 10 seconds and by centrifugation at 13,000 rpm for 15 minutes at 4° C. […] Western blot quantification was performed using densitometry analysis (Quantity One-BioRad software). […]

[3] = 10.0 μg/i.t.
Description: Injections were given to fully conscious mice using the method described by Hylden and Wilcox (Hylden & Wilcox, 1980). Animals were manually restrained, the dorsal fur of each mouse was shaved, the spinal column was arched, and a 30-gauge needle attached in a PE20 Polyethylene tube to a 25-μl Hamilton microsyringe (Hamilton, Birmingham, UK) was inserted into the subdural space between the L4 and L5 vertebrae. Correct i.t. positioning of the needle tip was confirmed by a characteristic tail-flick response of animal. Intrathecal injections of volumes between 2-10 μl were given over a period between 5-10 seconds.

[4] = system: CFA-injected mice; experiment: CFA-induced persistent inflammatory pain, mechanical hyperalgesia; conditions: acute delivery, 10.0 μg/i.t.
Description: Mechanical hyperalgesia was measured using the digital plantar aesthesiometer (DPA, UgoBasile, Varese, Italy). […] Mice were allowed to acclimate for a period of at least 90 minutes. The DPA device was positioned beneath the animal, so that the filament was directly under the plantar surface of the ipsilateral hind paw. Each paw was tested three times per session.

SMILES: CC(C)C[C@@H](C=O)NC(=O)[C@H](CC(C)C)NC(=O)[C@H](CC(C)C)NC(=O)OCc1ccccc1 [MG132] (Cbz-Leu-Leu-Leu-aldehyde)
- Cav3.2 ubiquitination signal [1]: only from immunoprecipitates from cells treated with 5 μM MG132
- ratio of ubiquitinated vs non-ubiquitinated channels (Ub-Cav3.2 channels/Cav3.2 channels), higher MW band (b) ([2]; n=4): 2.80±0.5
- ratio of ubiquitinated vs non-ubiquitinated channels (Ub-Cav3.2 channels/Cav3.2 channels), lower MW band (a) ([2]; n=5): 3.2±1.1

SMILES: CC(C)C[C@H](NC(=O)[C@H](CCCNC(=N)N)NC(=O)[C@H](CCCNC(=N)N)NC(=O)[C@H](CC(C)C)NC(=O)[C@H](CCCNC(=N)N)NC(=O)[C@H](CCCCN)NC(=O)[C@H](CCC(=O)O)NC(=O)[C@H](CCC(=O)O)NC(=O)[C@H](CCCNC(=N)N)NC(=O)[C@H](CCCNC(=N)N)NC(=O)[C@H](CCCNC(=N)N)NC(=O)[C@H](C)NC(=O)[C@H](CCC(=O)O)NC(=O)[C@H](CCCNC(=N)N)NC(=O)[C@H](CCCNC(=N)N)NC(=O)[C@H](CCCNC(=N)N)NC(=O)[C@H](CCC(N)=O)NC(=O)[C@H](CCCNC(=N)N)NC(=O)[C@H](CCCNC(=N)N)NC(=O)[C@H](CCCCN)NC(=O)[C@H](CCCCN)NC(=O)[C@H](CCCNC(=N)N)NC(=O)CNC(=O)[C@@H](N)Cc1ccc(O)cc1)C(=O)N[C@@H](CCC(=O)O)C(=O)N[C@@H](CCCNC(=N)N)C(=O)N[C@@H](CCCNC(=N)N)C(=O)N[C@@H](CCCNC(=N)N)C(=O)N[C@@H](CCCNC(=N)N)C(=O)N[C@@H](CCCCN)C(=O)N[C@@H](C)C(=O)N[C@@H](CCC(N)=O)C(=O)O [Tat-3.2-III-IV linker peptide] (H-YGRKKRRQRRREARRREEKRLRRLERRRRKAQ-OH)
- abnormal behavior ([3]; 2.5 μg/μl over 10 seconds): no abnormal behavior was observed
- mice that developed shaking behavior ([3]; 5 μg/μl over 5 seconds): 3 out of 10
- time to termination of shaking behavior after injection ([3]; 5 μg/μl over 5 seconds): ≤ 15 min

SMILES: COCC(=O)O[C@]1(CCN(C)CCCc2nc3ccccc3[nH]2)CCc2cc(F)ccc2[C@@H]1C(C)C [mibefradil]
- pain in the CFA model (mechanical withdrawal threshold) [4]: significantly attenuate pain in the CFA model

From patent US9993522B2, “Treatment of pain by inhibition of USP5 de-ubiquitinase” (UTI LIMITED PARTNERSHIP, priority 2012, dated 2018)
